Assay results: patent publication US9499509B2, “Dihydrochalcone derivatives and their use as antibiotic agents” (UNIVERSITÉ DU QUÉBEC À CHICOUTIMI, priority 2012, dated 2016)
Like-named read-outs stand apart in the source and are kept apart here.

Legend:
[1] = test system: methicillin-resistant Staphylococcus aureus (MRSA) strains; assay: Antibiotic assay (resazurin, Example 1), MRSA strains; assay type: cell-based; settings: for IC50: read-out: IC50
Outline: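 Ten MRSA strains isolated from screening swabs (nares, throat, groin pus) of patients at Chicoutimi hospital were tested, with S. aureus wild-type strain ATCC25923 run alongside. Isolates were identified using the Slidex Staph-Kit and API Staph strips. Methicillin resistance was confirmed by PBP2a latex agglutination and by a Kirby-Bauer disk diffusion antibiogram on Muller-Hinton agar at 37° C.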

[2] = test system: S. aureus wild type strain (ATCC 25923); assay: Antibiotic assay (resazurin, Example 1), S. aureus wild type; assay type: cell-based, Staphylococcus aureus
Description: (§1) Bacteria Strain. […] The MRSA were obtained as further described below.
(§2) Antibiotic agents. Cyprofloxacin and erythromycin were provided by Sigma-Aldrich. Gentamicin sulfate and vancomycin hydrochloride were provided by Calbiochem.
MRSA. Ten (10) strains of MRSA obtained as described above were tested along with an S. aureus wild type (WT) strain (ATCC25923).

S. aureus = assay: Antibiotic assay (resazurin, Example 1), S. aureus strains of Table 3; assay type: cell-based, Staphylococcus aureus; settings: for IC50: read-out: IC50
Text: as §1, §2

Enterococcus faecalis = assay: Antibiotic assay (resazurin, Example 1), Enterococcus faecalis; assay type: cell-based; settings: for IC50: read-out: IC50
Description: as §1, §2
(§3) Five additional strains were tested: Streptococcus pneumoniae, Streptococcus agalactiae, Streptococcus pyogenes, Enterococcus faecalis and Corynebacterium jeikeium.

Corynebacterium jeikeium = assay: Antibiotic assay (resazurin, Example 1), Corynebacterium jeikeium; assay type: cell-based; settings: Coryne. jeikeium 14139
Description: as §1, §2, §3

Streptococcus pyogenes = assay: Antibiotic assay (resazurin, Example 1), Streptococcus pyogenes; assay type: cell-based; settings: for IC50: read-out: IC50
Description: as §1, §2, §3

Streptococcus agalactiae = assay: Antibiotic assay (resazurin, Example 1), Streptococcus agalactiae; assay type: cell-based; settings: for IC50: read-out: IC50
Description: as §1, §2, §3

WS-1 cell lines = assay: Cytotoxicity assay on WS-1 (Example 1)
Description: Cytotoxicity assay. The cytotoxicity assay was performed in 96-well plates (BD Falcon). The WS-1 cell lines were provided by ATCC. The WS-1 was cultured in DMEM+10% fetal calf serum. The cells were plated in a volume of 100 μL at a density of 5000 cells per well and incubated at 37° C.+5% CO2 for 24 h to promote cell adhesion.
The plates were incubated at 37° C.+5% CO2 for 48 h. The cells were then washed with 100 μL of HBSS and 150 μL of a 2% resazurin were added to the wells.
The therapeutic index is the ratio between the toxicity on normal cells, in this case fibroblast, and the toxicity on bacteria.

S. epidermidis = assay: Antibiotic assay (resazurin, Example 1), S. epidermidis strains
Description: The antibiotic assays were performed in 96-well plates (BD Falcon). The bacteria strains were inoculated in Nutrient Broth (BD) for the gram negative bacteria and Tryptic soy broth (BD) with 10% of defibrinated sheep blood (PML microbiological) for gram positive strain. All bacteria strains were dosed by spectrophotometry at 660 nm where 1 D.O=2×10^8 bacteria/mL. All bacteria were plated in their respective broth at a concentration of 450 000 bacteria/mL.
Compounds I, II and III were diluted in methanol and the above-noted antibiotic agents were diluted in water. The solvent concentration was 0.25%, which was not toxic for the bacteria. Compounds I, II and III and the above-noted antibiotic agents were tested at 8 different concentrations.
Each well contained: 100 μL of bacteria, 50 μL of the compounds tested (compound I, II, III or the above-noted antibiotic agent) and 50 μL of a 4% resazurin (Sigma) solution. The plates were incubated at 37° C. for 5 h. The fluorescence was read using a Fluoroskan Ascent™ FL (thermo) using an excitation wavelength of 530 nm and an emission wavelength of 590 nm.
Two different strains of Staphylococcus were tested, namely the S. epidermidis and the S. aureus strains.

`COc1cc(O)c(C(=O)CCc2ccc(O)cc2)c(O)c1C/C=C/c1ccc(O)cc1` [Compound I] was tested, and the “Minimum Inhibitory Concentration (MIC)” value ([1]; MRSA 1) was “(5.11) μM”, the IC50 ([1]; MRSA 1) was 2.2 ± 0.2 µM and the “Minimum Inhibitory Concentration (MIC)” value ([1]; MRSA 2) was “(5.22) μM”. For the same compound, the IC50 ([1]; MRSA 2) was 2.2 ± 0.2 µM, the “Minimum Inhibitory Concentration (MIC)” value ([1]; MRSA 3) was “(5.54) μM” and the IC50 ([1]; MRSA 3) was 2.1 ± 0.2 µM. The “Minimum Inhibitory Concentration (MIC)” value ([1]; MRSA 4) was “(4.82) μM”, the IC50 ([1]; MRSA 4) was 2.1 ± 0.2 µM and the “Minimum Inhibitory Concentration (MIC)” value ([1]; MRSA 5) was “(5.07) μM”. The IC50 ([1]; MRSA 5) was 1.7 ± 0.2 µM, the “Minimum Inhibitory Concentration (MIC)” value ([1]; MRSA 6) was “(5.01) μM” and the IC50 ([1]; MRSA 6) was 2 ± 0.2 µM. The “Minimum Inhibitory Concentration (MIC)” value ([1]; MRSA 7) was “(4.39) μM”, the IC50 ([1]; MRSA 7) was 2.1 ± 0.2 µM and the “Minimum Inhibitory Concentration (MIC)” value ([1]; MRSA 8) was “(4.64) μM”. The IC50 ([1]; MRSA 8) was 2.1 ± 0.2 µM, the “Minimum Inhibitory Concentration (MIC)” value ([1]; MRSA 9) was “(5.00) μM” and the IC50 ([1]; MRSA 9) was 2.3 ± 0.2 µM. For the same compound, the “Minimum Inhibitory Concentration (MIC)” value ([1]; MRSA 10) was “(5.15) μM”, the IC50 ([1]; MRSA 10) was 2.6 ± 0.2 µM and the “Minimum Inhibitory Concentration (MIC)” value ([2]; S. aureus WT (ATCC 25923)) was “(6.87) μM”. For the same compound, the IC50 ([2]; S. aureus WT (ATCC 25923), read-out: IC50) was 2.8 ± 0.9 µM, the IC50 ([2]; Table 5, same values as IC50 of Table 2, read-out: S. aureus WT ATCC 25923 (toxicity on bacteria)) was 2.8 ± 0.9 µM and the “Minimum Inhibitory Concentration (MIC)” value (S. aureus; S. aureus 14094) was “(6.54) μM”. For the same compound, the IC50 (S. aureus; S. aureus 14094) was 3.5 ± 0.3 µM, the “Minimum Inhibitory Concentration (MIC)” value (S. aureus; S. aureus 14108) was “(8.73) μM” and the IC50 (S. aureus; S. aureus 14108) was 2.7 ± 0.3 µM. The “Minimum Inhibitory Concentration (MIC)” value (S. aureus; S. aureus 14118) was “(5.27) μM”, the IC50 (S. aureus; S. aureus 14118) was 3.5 ± 0.1 µM and the “Minimum Inhibitory Concentration (MIC)” value (S. aureus; S. aureus 14154) was “(4.37) μM”. For the same compound, the IC50 (S. aureus; S. aureus 14154) was 2.3 ± 0.1 µM, the “Minimum Inhibitory Concentration (MIC)” value (Enterococcus faecalis; Ent. Faecalis 14078) was “(>200) μM” and the IC50 (Enterococcus faecalis; Ent. Faecalis 14078) was > 200 µM. The “Minimum Inhibitory Concentration (MIC)” value (Enterococcus faecalis; Ent. Faecalis 14115) was “(>200) μM”, the IC50 (Enterococcus faecalis; Ent. Faecalis 14115) was > 200 µM and the “activity against Enterococcus faecalis” value (Enterococcus faecalis; in words) was “No activity”. For the same compound, the “Minimum Inhibitory Concentration (MIC)” value (Corynebacterium jeikeium) was “(67.5) μM”, the IC50 (Corynebacterium jeikeium; read-out: IC50) was 14 ± 3 µM and the “Minimum Inhibitory Concentration (MIC)” value (Streptococcus pyogenes; Strep. pyogenes 14149) was “(200) μM”. For the same compound, the IC50 (Streptococcus pyogenes; Strep. pyogenes 14149) was 118 µM, the “Minimum Inhibitory Concentration (MIC)” value (Streptococcus pyogenes; Strep. pyogenes 14152) was “(>200) μM” and the IC50 (Streptococcus pyogenes; Strep. pyogenes 14152) was 44 ± 10 µM. For the same compound, the “activity against Streptococcus pyogenes strain 14152” value (Streptococcus pyogenes; in words) was “active”, the “Minimum Inhibitory Concentration (MIC)” value (Streptococcus agalactiae; Strep. agalactiae 14150) was “(200) μM” and the IC50 (Streptococcus agalactiae; Strep. agalactiae 14150) was 144 ± 2 µM. For the same compound, the “Minimum Inhibitory Concentration (MIC)” value (Streptococcus agalactiae; Strep. agalactiae 14151) was “(>200) μM”, the IC50 (Streptococcus agalactiae; Strep. agalactiae 14151) was 198 ± 3 µM and the “Minimum Inhibitory Concentration (MIC)” value (Streptococcus agalactiae; Strep. agalactiae 14153) was “(>200) μM”. For the same compound, the IC50 (Streptococcus agalactiae; Strep. agalactiae 14153) was 174 ± 3 µM, the “activity against Streptococcus agalactiae strain 14150” value (Streptococcus agalactiae; in words) was “active” and the “WS-1 (toxicity on normal cells, fibroblast)” value (WS-1 cell lines) was 49 ± 9. For the same compound, the IC50 (S. epidermidis; S. epidermidis 14069) was 5.3 ± 0.2 µM, the “Minimum Inhibitory Concentration (MIC)” value (S. epidermidis; S. epidermidis 14069) was “(19.9) μM” and the IC50 (S. epidermidis; S. epidermidis 14085) was 4.5 ± 0.3 µM. For the same compound, the “Minimum Inhibitory Concentration (MIC)” value (S. epidermidis; S. epidermidis 14085) was “(23.5) μM”, the IC50 (S. epidermidis; S. epidermidis 14093) was 8.6 ± 0.6 µM and the “Minimum Inhibitory Concentration (MIC)” value (S. epidermidis; S. epidermidis 14093) was “(11.6) μM”. For the same compound, the IC50 (S. epidermidis; S. epidermidis 14134) was 3.7 ± 0.4 µM, the “Minimum Inhibitory Concentration (MIC)” value (S. epidermidis; S. epidermidis 14134) was “(19) μM” and the IC50 (S. epidermidis; S. epidermidis 14143) was 6.7 ± 0.3 µM. The “Minimum Inhibitory Concentration (MIC)” value (S. epidermidis; S. epidermidis 14143) was “(15.2) μM” and the “activity on S. epidermidis compared with ciprofloxacin” value (S. epidermidis; in words) was “more active than ciprofloxacin”.
